Measured values from article PMC5650142, “GPR40 partial agonists and AgoPAMs: Differentiating effects on glucose and hormonal secretions in the rodent” (PLoS ONE, 2017).
Values joined by “and” are separate entries in the source; they are usually repeats but may differ in a detail not shown here. Equal values may be shown once.

Key:
[1] = test system: GK rats; test: 13C-labeled glucose tolerance test (tissue 13C-glycogen); assay type: in vivo; conditions: GK rat, 13C-GTT after sub-chronic treatment; vs MK-8666 or vehicle
Method: On day 0, GK rats were selected and sorted into treatment groups based on ambient glucose measured via glucometer at 1 h post lights on. MK-8666 at 30 mg/kg was administered in feed (Research Diets) and provided ad lib on day 0. On days 1–6, rats were dosed via oral gavage (PO) at a volume of 5 ml/kg daily at approximately 12:30 PM with either vehicle (0.5% methylcellulose) or AP1 at 10 mg/kg. Rats from the MK-8666 group were administered vehicle PO at this time. On day 7, ambient glucose was measured 1 hr post lights on and food was removed. After approximately 5 hrs fasting, glucose was measured at time = - 60 min, followed by PO administration of vehicle or AP1. […] Blood glucose was then measured at t = 20, 40, 60, 120 minutes post challenge. […]
Glycogen is a primary site of glucose disposal in both liver and muscle; however glycogen was not preserved in our tissue extraction protocol. To quantify tissue 13C-glycogen, a separate piece of tissue from each sample was analyzed. […] The resulting glycogen-derived glucose solution was analyzed for total glucose using a glucose oxidase / horseradish peroxidase assay kit and fluorescence-based product detection according to the manufacturers’ instructions (BioVision Glycogen Assay Kit, Milpitas, CA).

[2] = test system: GK rats; test: Endogenous glucose production in vivo (2H/13C dual tracer); design: species or system rat;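 on Glucose production, EGP Total: micromoles per kg body weight per minute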;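 on Glucose production, Glycerol: absolute flux in micromoles per kg per minute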;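 on Glucose production, Glycogen: absolute flux in micromoles per kg per minute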;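 on Glucose production, TCA: absolute flux in micromoles per kg per minute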
Method: To evaluate the effects of the GPR40 partial and AgoPAM compounds on EGP in vivo, a 2H/13C dual tracer approach was used to calculate EGP and its contributing sources. Following the chronic treatments described above, 0.9% NaCl salinated deuterium oxide (D2O, Sigma-Aldrich, St. Louis, MO) was administered to all animals via intraperitoneal (IP) injection at dose volume of 20 ml/kg at 1 hr post lights on. Animals were then placed in clean cages and food was removed. After a 5 hour fast, blood glucose was measured and animals were dosed with 50 mg/kg [U-13C] glucose (Sigma-Aldrich, St. Louis, MO) IP at 5 ml/kg. Blood was collected via tail snip at time points from 60–150 min post treatment to measure blood glucose (via glucometer) as well as endogenous (12C-glucose) and exogenous (13C-glucose) via GCMS. Following the last tail blood collection, rats were anesthetized with isoflurane and cardiac blood was collected into K2EDTA tubes (Becton, Dickinson and Co., Franklin Lakes, NJ).
The serially collected blood samples were analyzed for 13C-glucose enrichment using GC-MS analysis. The % 13C glucose enrichments were then combined with the total glucose readings to calculate the concentration of 13C-glucose, and these values were modeled with a two-compartment model of whole body glucose metabolism to calculate the average EGP for the period from 0–150 minutes.
Terminal blood samples were analyzed for relative 2H enrichment in plasma glucose using the monoacetone glucose method. Briefly, samples were extracted with 70% perchloric acid at a ratio of 50 μl perchloric acid per 1 ml plasma and centrifuged at 25,000 rcf for 10 min at 4°C. The supernatant was collected and the pH was adjusted to 6–8 using aqueous KOH. The samples were then lyophilized overnight. To convert plasma glucose to monoacetone glucose (MAG), acetone and concentrated sulfuric acid were added to the lyophilized samples and stirred for 4 hours at room temperature. Water was then added and the pH adjusted to 2.0 with 3M Na2CO3. Samples were stirred moderately for 18 hours at room temperature, the pH was adjusted to 7 with 3M Na2CO3, and the samples were completely dried by speed vacuum concentration. The resulting MAG samples were then extracted in hot ethyl acetate, dried overnight under a stream of N2 gas, and purified using Discovery DSC-18 SPE columns (6 ml, 1 g bed weight). For the SPE protocol, MAG samples were reconstituted in 3 ml water and passed over the columns which were pre-washed with 2 ml methanol. The columns were rinsed twice with 1 ml water and the MAG was eluted with 5% acetonitrile. The acetonitrile eluent was then transferred to a glass scintillation vial and freeze dried. Purified MAG samples were solubilized in 180 μl 90% acetonitrile for 2H NMR analysis which was performed using the lock channel of a 950 MHz Bruker NMR spectrometer (David H Murdock Research Institute, DHMRI Kannapolis, NC). Acquisition parameters were as follows: 90° pulse, D1 = 1 s, 1H broadband decoupling, NS = 3600, acquisition time ~ 1 hr. The 2H NMR spectra of the MAG samples were then analyzed using Matlab (The Mathworks Inc, Natick, MA) to model the NMR peaks with a Lorentzian lineshape, and the results were used to calculate integrals for each of the seven NMR resonances in the MAG spectrum. Peaks 2, 5, and 6s were then used to calculate the relative sources of EGP (i.e. gluconeogenesis from TCA cycle substrates, glucose production from triose phosphates, and glycogenolysis) and these values were combined with the total EGP measurement to calculate absolute fluxes of glucose production.

[3] = GK rats, 30 mpk, individual animal values (data for Fig 8), 30 mg/kg

| Compound | skeletal muscle 13C-glycogen levels [1] | endogenous glucose production (EGP) ([2]; GK rat, following chronic treatment) | Glucose production, EGP Total [2, 3] | Glucose production, Glycerol [2, 3] | Glucose production, Glycogen [2, 3] | Glucose production, TCA [2, 3] |
| --- | --- | --- | --- | --- | --- | --- |
| COc1ccc(F)c(-c2ccc([C@@H]3CCc4ccc([C@H](C5CC5)[C@H](C)C(=O)O)cc4O3)cc2)c1 [AP1] | increased | – | – | – | – | – |
| Cc1cc(OCCCS(C)(=O)=O)cc(C)c1-c1cccc(COc2cc3c(cn2)[C@H]2[C@@H](C3)[C@@H]2C(=O)O)c1 [MK-8666] | – | reduced | 47.3366 µmol/kg/min and 49.7015 µmol/kg/min and 23.1675 µmol/kg/min and 46.5921 µmol/kg/min and 49.3944 µmol/kg/min and 59.3105 µmol/kg/min and 53.4963 µmol/kg/min | 8.397 µmol/kg/min and 6.008 µmol/kg/min and 2.752 µmol/kg/min and 6.734 µmol/kg/min and 8.91 µmol/kg/min and 9 µmol/kg/min and 9.76 µmol/kg/min | 15.2782 µmol/kg/min and 19.9182 µmol/kg/min and 7.082 µmol/kg/min and 20.1227 µmol/kg/min and 18.1009 µmol/kg/min and 21.3139 µmol/kg/min and 17.6544 µmol/kg/min | 23.6618 µmol/kg/min and 23.7752 µmol/kg/min and 13.3332 µmol/kg/min and 19.7357 µmol/kg/min and 22.3838 µmol/kg/min and 28.9962 µmol/kg/min and 26.0816 µmol/kg/min |
